The RepoRT retention time repository (doi:10.1016/j.chroma.2022.462867)

Assays:
Details in all cases: stereoisomer not certain
[1] = RP, Phenomenex Kinetex PS C18, 150 × 3 mm, 2.6 µm, 40 °C, 0.35 mL/min, estimated dead time 1.9 min; A: water + 5 mM ammonium acetate, pH 5; B: methanol; gradient (min/%B) 0/5 20/100 25/100 30/5
[2] = RP, Phenomenex Kinetex EVO C18, 150 × 3 mm, 2.6 µm, 40 °C, 0.35 mL/min, estimated dead time 1.9 min; A: water + 5 mM ammonium formate, pH 5; B: acetonitrile; gradient (min/%B) 0/5 20/100 25/100 30/5
[3] = RP, Phenomenex Kinetex EVO C18, 150 × 3 mm, 2.6 µm, 40 °C, 0.35 mL/min, estimated dead time 1.9 min; A: water + 0.1% formic acid, pH 3; B: methanol; gradient (min/%B) 0/5 20/100 25/100 30/5
[4] = HILIC, Phenomenex Kinetex HILIC, 150 × 3 mm, 2.6 µm, 40 °C, 0.35 mL/min, estimated dead time 1.9 min; A: water + 0.1% formic acid, pH 3; B: methanol; gradient (min/%B) 0/95 20/0 25/0 30/95

LC retention time [1] | LC retention time [2] | LC retention time [3] | LC retention time [4] | SMILES
8.12 min | 5 min | 7.35 min |  | c1ccc2n[nH]nc2c1 [1H-Benzotriazole]
15 min | 11.6 min | 15.2 min |  | CSc1nc2ccccc2s1 [2-(Methylthio)benzothiazole]
13 min |  | 14.1 min |  | O=C(O)c1ccc2ccccc2c1 [2-naphthoic acid]
10.4 min | 6.42 min | 9.78 min |  | Cc1ccc2n[nH]nc2c1 [5-Methyl-1H-benzotriazole]
15.8 min | 11.2 min | 15.2 min |  | CC12CCC3c4ccc(O)cc4CCC3C1CCC2O (stereo not drawn) [17beta estradiol]
20.3 min | 16.9 min |  |  | CC(C)C1=CC2=CCC3C(C)(C(=O)O)CCCC3(C)C2CC1 (stereo not given) [Abietic acid]
13.9 min |  | 13.6 min |  | CCN=C1NC(NC(C)C)=NC(Cl)N1 (stereo not given) [Atrazine]
11.5 min | 7.96 min | 11.2 min |  | c1ccc2scnc2c1 [Benzothiazole]
7.93 min | 3.88 min | 6.69 min |  | Cn1c(=O)c2c(ncn2C)n(C)c1=O [Caffeine]
13.2 min |  | 12.6 min |  | NC(=O)N1c2ccccc2C=Cc2ccccc21 [Carbamazepine]
15.1 min | 12.5 min | 15.5 min |  | c1ccc2c(c1)[nH]c1ccccc12 [Carbazole]
9.81 min | 6.87 min | 9.19 min |  | NS(=O)(=O)c1cc(C2(O)NC(=O)c3ccccc32)ccc1Cl (stereo not given) [Chlorthalidone]
15 min | 9.72 min | 14 min |  | CC12CCC(=O)C=C1CCC1C2C(O)CC2(C)C(C(=O)CO)CCC12 (stereo not given) [Corticosterone]
 |  |  | 4 min | CN1CC(=O)NC1=N [Creatinine]
12 min | 8.86 min | 11.4 min |  | CCN=C1NC(Cl)NC(NC(C)(C)C#N)N1 (stereo not given) [Cyanazine]
14.1 min | 10.6 min | 13.9 min |  | CN(C)C(=O)Nc1ccc(Cl)c(Cl)c1 [Diuron]
16.7 min | 13.6 min | 16.8 min |  | O=C1Nc2ccc(Cl)cc2C(C#CC2CC2)(C(F)(F)F)O1 (stereo not given) [Efavirenz]
15.7 min | 11.7 min | 15.1 min |  | CC12CCC3c4ccc(O)cc4CCC3C1CCC2=O (stereo not given) [Estrone]
16 min | 12.5 min | 16.2 min |  | COc1ccc(Cl)cc1C(=O)NCCc1ccc(S(=O)(=O)NC(=O)NC2CCCCC2)cc1 [Glibenclamide]
16.5 min | 12.8 min |  |  | CCC1=C(C)CN(C(=O)NCCc2ccc(S(=O)(=O)NC(=O)NC3CCC(C)CC3)cc2)C1=O (stereo not given) [Glimepiride]
13.8 min | 9.77 min | 4.62 min |  | NS(=O)(=O)c1cc2c(cc1Cl)NCNS2(=O)=O [Hydrochlorothiazide]

LC retention time [1] | LC retention time [2] | LC retention time [3] | LC retention time [4] | SMILES
15 min | 10.6 min | 14.3 min |  | CC(=O)OCC(=O)C1(O)CCC2C3CCC4=CC(=O)CCC4(C)C3C(O)CC21C (stereo not given) [Hydrocortisonacetate]
15.5 min | 13 min | 15.7 min |  | C1=Cc2ccccc2Nc2ccccc21 [Iminostilbene]
14.6 min | 9.45 min | 14.5 min |  | CCCCC1=NC2(CCCC2)C(=O)N1Cc1ccc(-c2ccccc2-c2nn[nH]n2)cc1 [Irbesartan]
16.6 min |  |  |  | CSC1N=C(NC2CC2)NC(NC(C)(C)C)N1 (stereo not given) [Irgarol]
9.47 min | 5.28 min | 12.2 min |  | COC(=O)C1CCCCC1S(=O)(=O)NC(=O)NC1=NC(OC)NC(C)N1 (stereo not given) [Metsulfuron-methyl]
3.85 min |  |  |  | NC(=O)c1cccnc1 [Nicotinamide]
15.9 min | 11.2 min | 14.9 min |  | C#CC1(O)CCC2C3CCC4=CC(=O)CCC4C3CCC21C (stereo not given) [Norethindrone]
9.04 min |  | 7.82 min |  | Cc1cc(=O)n(-c2ccccc2)n1C [Phenazone (Antipyrine)]
17.8 min | 13.3 min | 16.9 min |  | CC(=O)C1CCC2C3CCC4=CC(=O)CCC4(C)C3CCC12C (stereo not given) [Progesterone]
16.2 min | 12.5 min |  |  | CSC1N=C(NC(C)C)NC(NC(C)C)=N1 [Prometryn]
7.7 min | 4.45 min | 6.85 min |  | CCCc1cc(=O)[nH]c(=S)[nH]1 [Propylthiouracil]
9.84 min | 5.73 min | 8.84 min |  | c1ccc2nccnc2c1 [Quinoxaline]
12.4 min | 8.6 min | 11.9 min |  | CCN=C1NC(=NCC)NC(Cl)N1 (stereo not given) [Simazine]
19.1 min | 14.9 min |  |  | CCC(C)(C)C(=O)OC1CC(C)C=C2C=CC(C)C(CCC3CC(O)CC(=O)O3)C21 (stereo not given) [Simvastatin]
19.2 min | 15.2 min | 19.4 min |  | Oc1ccc2ccccc2c1N=Nc1ccccc1 [Sudan I]
7.93 min | 5.18 min | 6.77 min |  | Cc1cc(C)nc(NS(=O)(=O)c2ccc(N)cc2)n1 [Sulfamethazine]
6.53 min | 4.4 min | 5.39 min |  | Nc1ccc(S(=O)(=O)Nc2ccccn2)cc1 [Sulfapyridine]
6.79 min | 3.27 min | 5.29 min |  | Cn1c(=O)c2[nH]cnc2n(C)c1=O [Theophylline]
13.5 min | 8.73 min |  |  | CCCCC(=O)N(Cc1ccc(-c2ccccc2-c2nn[nH]n2)cc1)C(C(=O)O)C(C)C (stereo not given) [Valsartan]
9.64 min | 5.92 min | 8.85 min |  | OC(Cn1cncn1)(Cn1cncn1)c1ccc(F)cc1F [fluconazole]

SMILES | LC retention time [1] | LC retention time [2] | LC retention time [3] | LC retention time [4]
O=[N+]([O-])c1ccc2ccc3cccc4ccc1c2c34 [1-Nitropyrene] | 18.4 min | 14.8 min |  | 
Oc1ccc2ccc3cccc4ccc1c2c34 [1-hydroxypyrene] | 16.7 min | 13.1 min |  | 
Nc1ccc(Cl)cc1 [4-Chloroaniline] | 10.3 min | 8.88 min | 5.28 min | 
CCc1cccc(CC)c1N(COC)C(=O)CCl [Alachlor] | 16.4 min | 13 min | 16.2 min | 
CC(O)(CS(=O)(=O)c1ccc(F)cc1)C(=O)Nc1ccc(C#N)c(C(F)(F)F)c1 (stereo not given) [Bicalutamide] | 14.6 min | 12.2 min | 14.4 min | 
Nc1cnn(-c2ccccc2)c(=O)c1Cl [Chloridazon] | 9.65 min | 6.18 min | 8.88 min | 
CCOP(=S)(OCC)Oc1nc(Cl)c(Cl)cc1Cl [Chlorpyrifos] | 18.8 min | 15.9 min |  | 
CCCSP(=O)(OCC)SCCC [Ethoprop] | 16.5 min |  |  | 
N#Cc1nn(-c2c(Cl)cc(C(F)(F)F)cc2Cl)c(N)c1S(=O)C(F)(F)F (stereo not given) [Fipronil] | 16.6 min |  | 16.7 min | 
Nc1nc(N)nc(N)n1 [Melamine] | 2.33 min |  |  | 
Cc1cccc(C)c1N(Cn1cccn1)C(=O)CCl [Metazachlor] | 14.1 min | 10.6 min | 13.7 min | 
CCc1cccc(C)c1N(C(=O)CCl)C(C)COC (stereo not given) [Metolachlor] | 16.6 min | 12.9 min | 16.3 min | 
CNC(=O)C=C(C)OP(=O)(OC)OC [Monocrotophos] | 7.86 min | 4.17 min | 6.95 min | 
CN(C)C(=O)Nc1ccc(Cl)cc1 [Monuron] | 11.9 min | 8.56 min | 11.5 min | 
CCOP(=S)(OCC)Oc1ccc([N+](=O)[O-])cc1 [Parathion] | 16.7 min | 14.2 min | 16.8 min | 
CCC(=O)Nc1ccc(Cl)c(Cl)c1 [Propanil] | 15 min | 11.8 min | 14.9 min | 
CC(C)COP(=O)(OCC(C)C)OCC(C)C [Tri-isobutyl phosphate] | 18 min | 14 min | 17.8 min | 
CCOP(=O)(OCC)OCC [Triethyl phosphate] | 11.2 min | 6.52 min | 10.5 min | 
CCCN(CCC)c1c([N+](=O)[O-])cc(C(F)(F)F)cc1[N+](=O)[O-] [Trifluralin] | 19 min | 16.5 min | 16.9 min | 
O=P(Oc1ccccc1)(Oc1ccccc1)Oc1ccccc1 [Triphenylphosphate] | 17.3 min | 13.8 min | 17.2 min | 
